The text below walks through data of article PMC4484790 (Virology, 2014).

The nature of data set [1]: PK of orally administered TFV. In kind it is in vivo.
Data set [2] concerns HIV. Particulars: Partners PrEP study; oral; serodiscordant couples; ref Baeten et al., 2012; cited from earlier work.
A further data set in a line: in vivo. Details: species or system non-humanized mice. The note with it: female, mouse, po, 61.5 mg/kg.
For data set [3], the system named is HIV. Particulars: hu-mice; oral administration at allometric dosing levels; ref Neff et al., 2010; cited from earlier work.
The mark [4] stands for this setting: female, BALB/c Rag1−/− or Rag2−/−γc−/− (humanized, Hu-HSC RAG-hu), mouse, intestinal tissue, po, 61.5 mg/kg.
Setting [5] is: female, BALB/c Rag1−/− or Rag2−/−γc−/− (humanized, Hu-HSC RAG-hu), mouse, plasma, po, 61.5 mg/kg.
The mark [6] stands for this setting: female, BALB/c Rag1−/− or Rag2−/−γc−/− (humanized, Hu-HSC RAG-hu), mouse, rectal tissue, po, 61.5 mg/kg.
[7] abbreviates: female, BALB/c Rag1−/− or Rag2−/−γc−/− (humanized, Hu-HSC RAG-hu), mouse, vaginal tissue, po, 61.5 mg/kg.

As for `CC(Cn1cnc2c(N)ncnc21)OCP(=O)(O)OP(=O)(O)OP(=O)(O)O` (stereo in doubt) [TFV-DP, Tenofovir Diphosphate], the “AUC24h intestinal:rectal tissue ratio” value in data set [1] (hu-mice, TFV oral 61.5 mg/kg x 5 days) is 2.45.

One may read the AUC(0-t) as the area under the concentration-time curve up to a stated or last time point. A higher AUC(0-t) goes with high exposure. One may read the Cmax as the peak of the concentration-time curve. As usually defined, the Tmax is the time from dosing to the highest level. In general, half-life refers to the time needed for the level to fall by half in the phase considered. Read a high half-life as slow decline. Turning to `C[C@H](Cn1cnc2c(N)ncnc21)OCP(=O)(O)O` [TFV, Tenofovir], the AUC(0-t) in data set [1] (female, BALB/c Rag1−/− or Rag2−/−γc−/− (humanized, Hu-HSC RAG-hu), mouse, in vivo, po, 61.5 mg/kg) turned out to be 11300 ng·h/mL; in the data set “in vivo” it was 17300 ng·h/mL. The Cmax in data set [1] (female, BALB/c Rag1−/− or Rag2−/−γc−/− (humanized, Hu-HSC RAG-hu), mouse, in vivo, po, 61.5 mg/kg, Cmax (median)) amounted to 1990 ng/mL; in “in vivo” (Cmax (median)), 1550 ng/mL. The Tmax in data set [1] (setting [4]) worked out at 2 h; in data set [1] (setting [5]) it was 2 h; in data set [1] (setting [6]), 2 h; in data set [1] (setting [7]), 2 h; in “in vivo”, 8 h. Also, the half-life is 13.9 h in data set [1] (setting [4]), 17 h in data set [1] (setting [5]), 13.5 h in data set [1] (setting [6]) and 9 h in data set [1] (setting [7]). For the same compound, the “reduction in HIV-1 incidence” value in the data set on HIV [2] is 67%.

Maraviroc [MVC]: the “protection against HIV vaginal challenge” value with HIV [3] was “fully protective”.
